Laboratory results reported in patent US6172065A, “Urea and thiourea derivatives of substituted quinoxaline 2,3-diones as glutamate receptor antagonists” (Warner-Lambert Company, priority 1998, dated 2001).
pIC50: −log10 of the molar value.

Columns and labels:
[1] = molecular target: T1, glycine site of the NMDA receptor (Rattus norvegicus, UniProt P35439); experiment: Glycine site of the NMDA receptor binding affinity (Jones et al. method); settings: Table 1, GLY (glycine site of NMDA receptor)
T1 construct: from tissue

[2] = molecular target: AMPA receptors; experiment: AMPA receptor binding affinity (Honore et al. method); settings: Table 1, AMPA
[3] = molecular target: kainate site (non-NMDA receptor); experiment: Kainate site (non-NMDA receptor) binding affinity (London and Coyle method); settings: Table 1, KA (kainate)

Row | pIC50 [1] | pIC50 [2] | IC50 KA [3] | SMILES
1 | 7.70 | 5.44 | 6700 nM | Cc1ccc(NC(=O)N(C)Cc2c(C)c([N+](=O)[O-])cc3[nH]c(=O)c(=O)[nH]c23)c(C)c1 [Compound 4, 3-(2,4-Dimethyl-phenyl)-1-methyl-1-(6-methyl-7-nitro-2,3-dioxo-1,2,3,4-tetrahydro-quinoxalin-5-ylmethyl)-urea]
2 | 8.00 | 5.52 | 9540 nM | COc1ccc(OC)c(NC(=O)N(C)Cc2c(C)c([N+](=O)[O-])cc3[nH]c(=O)c(=O)[nH]c23)c1 [Compound 5, 3-(2,5-Dimethoxy-phenyl)-1-methyl-1-(6-methyl-7-nitro-2,3-dioxo-1,2,3,4-tetrahydro-quinoxalin-5-ylmethyl)-urea]
3 | 8.00 | 5.55 | 7500 nM | Cc1c([N+](=O)[O-])cc2[nH]c(=O)c(=O)[nH]c2c1CN(C)C(=O)Nc1ccccc1C(F)(F)F [Compound 6, 1-Methyl-1-(6-methyl-7-nitro-2,3-dioxo-1,2,3,4-tetrahydro-quinoxalin-5-ylmethyl)-3-(2-trifluoromethyl-phenyl)-urea]
4 | 8.00 | 5.39 | 18400 nM | CCOC(=O)c1ccc(NC(=O)N(C)Cc2c(C)c([N+](=O)[O-])cc3[nH]c(=O)c(=O)[nH]c23)cc1 [Compound 7, 4-(3-Methyl-3-(6-methyl-7-nitro-2,3-dioxo-1,2,3,4-tetrahydro-quinoxalin-5-ylmethyl)ureido)-benzoic acid ethyl ester]

More lines, now with the values behind:

Row | SMILES | pIC50 [1] | pIC50 [2] | IC50 KA [3]
5 | Cc1c([N+](=O)[O-])cc2[nH]c(=O)c(=O)[nH]c2c1CN(C)C(=O)Nc1ccccc1 [Compound 1, 1-Methyl-1-(6-methyl-7-nitro-2,3-dioxo-1,2,3,4-tetrahydro-quinoxalin-5-ylmethyl)-3-phenyl-urea] | 8.10 | 6.89 | 820 nM
6 | COc1ccc(NC(=O)N(C)Cc2c(C)c([N+](=O)[O-])cc3[nH]c(=O)c(=O)[nH]c23)cc1 [Compound 2, 3-(4-Methoxy-phenyl)-1-methyl-1-(6-methyl-7-nitro-2,3-dioxo-1,2,3,4-tetrahydro-quinoxalin-5-ylmethyl)-urea] | 8.30 | 6.77 | 1120 nM
7 | COc1ccc(NC(=S)N(C)Cc2c(C)c([N+](=O)[O-])cc3[nH]c(=O)c(=O)[nH]c23)cc1 [Compound 3, 3-(4-Methoxy-phenyl)-1-methyl-1-(6-methyl-7-nitro-2,3-dioxo-1,2,3,4-tetrahydro-quinoxalin-5-ylmethyl)-thiourea] | 7.40 | 6.64 | 2540 nM
